Test results: patent publication US20150126475A1, “PESTICIDAL COMPOSITION AND METHOD FOR CONTROLLING PESTS” (priority 2012, published 2015)

Key:
Assay type in all cases: in vivo
[1] = tested on: southern root-knot nematode (Meloidogyne incognita); assay: Root knot index on tomato in pots with soil contaminated with southern root-knot nematode (Test Example 1); parameters: key: visual root knot index, 0 to 100%; details: non-treated = 100
Method: 1 Liter of sand soil having paddy soil sterilized by steam and sand mixed in a volume ratio of 1:1 was put into a 1/1,000,000 ha pot, and a predetermined amount of a test compound was added and mixed. Immediately after addition of the compound, 500 mL of soil contaminated with southern root-knot nematode (Meloidogyne incognita) was put in each pot and sufficiently mixed, and then seedling of tomato (cultivar: yellow pear) were transplantated. On the 33rd to 35th day after transplantation, the root knot index (0 to 100%) formed by nematode was visually determined. The test was carried out by two replications.
Further, theoretical values determined by the Colby's formula are shown in brackets ( ) in Tables.

[2] = tested on: two-spotted spider mite; assay: Control of two-spotted spider mite on eggplant seedlings in pots (Test Example 2); details: 14th day after treatment
Method: 1 Liter of sand soil having paddy soil sterilized by steam and sand mixed in a volume ratio of 1:1 was put into a 1/1,000,000 ha pot, and a predetermined amount of a test compound was added and mixed. Seedlings of eggplant (cultivar: Senryo No. 2) in which 30 adults of two-spotted spider mite (greenish yellow) were parasitic were transplanted and grown in a greenhouse for 5 days, and a test compound was applied to each pot. On the 14th day after treatment, the number of two-spotted spider mite parasitic in each pot was examined. The test was carried out by three replications. The test results are shown in Table 4 by the control value (%). Further, theoretical values determined by the Colby's formula are shown in brackets ( ) in Table 4.
Further, the control value (%) was calculated in accordance with the following formula.
(§1) Control value(%)=(1−(number of parasites in treated area)/(number of parasites in non-treated area))×100

[3] = tested on: common cutworm; assay: Control of common cutworm larvae on leaf of cabbage grown in treated soil (Test Example 3); details: second-instar larvae, 4th day
Text: as §1
Sand soil having sand, non-sterilized soil and sterilized soil mixed in a volume ratio of 1:1:1 was put into a 1/500,000 ha pot, and predetermined amounts of test compounds were sufficiently mixed. Seedlings of cabbage (cultivar: Okina) in 3-leaf stage were transplanted and grown in a greenhouse for 11 days. Then, the fourth leaf of the cabbage was cut, and 10 second-instar larvae of common cutworm were released. On the 4th day, the number of surviving insects was examined, and the control value was determined in the same manner as in Test Example 2. The test was carried out by three replications. Further, theoretical values determined by the Colby's formula are shown in brackets ( ) in Table 5. Further, the combination of fosthiazate and imidacloprid was tested as a Comparative Example.

[4] = tested on: larvae of turnip fly; assay: Field test, damage to Daikon radish root by larvae of turnip fly (Test Example 4); details: 36th day after sowing
Method: Granules of fosthiazate and granules of clothianidin were mixed in predetermined active ingredient amounts, and the mixture was spread on the surface of soil of a field and sufficiently mixed by a small rotary. Seeds of Daikon radish were sown, and on the 36th day after sowing, the degree of damage to the root by larvae of turnip fly was examined by degree, and the damage grade was determined in accordance with the following formula. Further, theoretical values determined by the Colby's formula are shown in brackets ( ) in Table 6. Further, the combination of granules of fosthiazate and granules of imidacloprid was tested as a Comparative Example.
Degree of damage (nil: 0, low: 1, middle: 2, high: 3, enormous: 4)
Damage grade={Σ(damage grade index×number of Daikon radish investigated at each degree of damage)/(total number investigated×4)}×100

[5] = Table 3, single compound 5000 g a.i./ha
[6] = Table 1, single compound 5000 g a.i./ha, tomato, 33rd to 35th day
[7] = single compound granules 500 g a.i/ha
[8] = single compound granules 750 g a.i/ha
[9] = single compound granules 1000 g a.i/ha
[10] = Table 2, single compound 500 g a.i./ha

Which Root knot index [1, 5] does the source give for `O=C(NC(=O)c1c(F)cccc1F)Nc1cc(Cl)c(Oc2ncc(C(F)(F)F)cc2Cl)c(Cl)c1` [Chlorfluazuron, chlorfluazuron] here?
The Root knot index was 100.

What does the source list for `CN/C(=N\[N+](=O)[O-])NCc1cnc(Cl)s1` [clothianidin]?
Root knot index [1, 6]: 99.3; Control value ([2]; single compound 400 g a.i/ha): 35%; Control value ([2]; single compound 800 g a.i/ha): 48%; Control value ([2]; single compound 1500 g a.i/ha): 22%; Control value ([3]; single compound 156 g a.i/ha): 3.3%; Control value ([3]; single compound 313 g a.i/ha): 20.0%; Damage degree [4, 7]: 20.0; Damage degree [4, 8]: 25.3; Damage degree [4, 9]: 0

For `CN1COCN(Cc2cnc(Cl)s2)/C1=N\[N+](=O)[O-]` [thiamethoxam], which Root knot index [1, 6] is on record?
The Root knot index was 95.7.

What does the source list for `CCOP(=O)(SC(C)CC)N1CCSC1=O` (stereo not shown) [fosthiazate]?
Root knot index ([1]; Table 1, single compound 750 g a.i./ha, soil mixing, tomato, 33rd to 35th day): 35.4; Root knot index ([1]; Table 2, single compound 750 g a.i./ha): 22.0; Root knot index ([1]; Table 2, single compound 1500 g a.i./ha): 5.0; Root knot index ([1]; Table 3, single compound 750 g a.i./ha): 15.8; Control value ([2]; single compound 6000 g a.i/ha): 98%; Control value ([3]; single compound 6000 g a.i/ha): 73.3%; Damage degree ([4]; single compound granules 6000 g a.i/ha, Daikon radish field): 33.7

For `O=C(NC(=O)c1c(F)cccc1F)Nc1cc(Cl)c(F)c(Cl)c1F` [Teflubenzuron, teflubenzuron], which Root knot index [1, 5] is on record?
Its Root knot index is 100.

How did the Control value ([3]; single compound 156 g a.i/ha) turn out when `O=[N+]([O-])NC1=NCCN1Cc1ccc(Cl)nc1` [Imidacloprid, imidacloprid] was run?
Its Control value is 6.7%.

And the Control value ([3]; single compound 313 g a.i/ha)?
Its Control value is 13.3%.

What about the Damage degree [4, 7] of the same compound?
The Damage degree was 23.2.

And the Damage degree [4, 8]?
The Damage degree was 34.7.

What about the Damage degree [4, 9] of the same compound?
Its Damage degree is 26.3.

With `Cc1c(F)c(F)c(COC(=O)[C@@H]2[C@H](/C=C(\Cl)C(F)(F)F)C2(C)C)c(F)c1F` (racemic) [Tefluthrin, tefluthrin] as the compound, how does the Root knot index [1, 10] read?
Its Root knot index is 100.

For `CN/C(=N/CC1CCOC1)N[N+](=O)[O-]` (stereo not shown) [dinotefuran], which Root knot index [1, 6] is on record?
Its Root knot index is 97.6.

Which Root knot index [1, 5] does the source give for `O=C(NC(=O)c1c(F)cccc1F)Nc1ccc(Oc2ccc(C(F)(F)F)cc2Cl)cc1F` [Flufenoxuron, flufenoxuron] here?
Its Root knot index is 100.

How did the Root knot index [1, 10] turn out when `CCOc1ccc([Si](C)(C)CCCc2ccc(F)c(Oc3ccccc3)c2)cc1` [Silafluofen, silafluofen] was run?
Its Root knot index is 100.
